Reference: patent US6017878A (McGill University, priority 1994, dated 2000)
Several values for one entry are separate records, joined by “and”; a condition that tells them apart may be missing. Identical values can stand only once. Entries after “also recorded” stand apart in the source; their conditions may differ.

How the values were obtained:
[1] = tested on: NGF induced neurite outgrowth in PC12 cells; test: NGF induced neurite outgrowth assay in PC12 cells; assay type: cell-based, rat; settings: analog ~10 μM, 50 ng/ml NGF; for INHIBITION OF NEURITE OUTGROWTH (1): PC12 cells, arbitrary units by comparison with NGF dose response curves
Procedure: (§1) All cells were cultured as described. PC12 pheochromocytoma cells expressing rat p140 trkA and p75 LNGFR (American Type Culture Collection, 7th edition, 1992, Catalog of cell lines and hybridomas, R. Hay Editor, accession No. CRL 1721) were grown in DMEM supplemented with 20% Fetal Bovine Serum (FBS), 10% Horse serum, and antibiotics. PC12 cells used for experiments were grown on collagen coated dishes. The NIH-3T3 fibroblast transfectants R7 (p75 and trkA double transfectant) and E25 (trkA transfectant) (Jing, S. et al. (1992) Neuron, 9: 1067-1079; kindly provided by Dr. Mariano Barbacid, Bristol-Meyers-Squibb, NJ) were grown in RPMI media supplemented with 5% FBS and antibiotics and the appropriate drug selection.
(§2) Cells without growth factor added served as baseline, whereas cells with growth factor but without analog added were used for maximum neurite outgrowth determination. All analogs were tested in at least three separate assays from three different synthesis. Samples were coded and analysis were performed blind.
(§3) Representative results for 3 different analogs are shown. For a summary and complete list of the results from these biological tests see Table II.
Significant inhibition is indicated by +++.

[2] = target: T1, E25 (trkA), trkA receptor expressing fibroblast transfectants (Homo sapiens, UniProt P04629); test: 125I-NGF binding to E25 transfectants, with dose response and saturation studies; settings: for % INHIBITION of 125I-NGF binding, E25 (trkA) / effect on 125I-NGF binding to E25 cells (in words): analog ~40 μM; for % INHIBITION of 125I-NGF binding, E25 (trkA): mean ±2 SEM
T1 construct: expressed in transfected cells; host or cells: NIH-3T3 mouse fibroblasts (E25), from Dr. Mariano Barbacid; Jing et al. 1992
Procedure: as §1
(§4) Assays were performed >4 times, each from at least three different synthesis (inhibitory analogs) or 1-3 times each from 2 different synthesis (non-inhibitory analogs).
(§5) Analogs were used at a concentration of ^~ 40 μM.
(§6) Data shown represents an average percent inhibition of binding ±2 standard errors of the mean (2 SEM). […] NT=not tested. (*) assayed only once.
(§7) Percent inhibition was determined by applying the following formula: [formula]
Saturation binding assays were performed with trkA receptor expressing E25 cells as described above.

[3] = tested on: bFGF mediated neurite outgrowth in PC12 cells; test: bFGF mediated neurite outgrowth in PC12 cells (specificity control); assay type: cell-based, rat; settings: analog ~10 μM, 50 ng/ml bFGF
Procedure: as §2, §3

[4] = target: T2, surface trkA receptors on E25 cells (Homo sapiens, UniProt P04629); test: trkA receptor internalization in E25 cells (FACScan); assay type: cell-based; settings: 10 μM, 30 min, 37° C. permissive vs 4° C. 0.05% sodium azide
T2 construct: expressed in transfected cells; host or cells: NIH-3T3 mouse fibroblasts (E25), from Dr. Mariano Barbacid; Jing et al. 1992
Excerpt: Expression of surface trkA receptors was quantified by FACScan analysis.
FIG. 4A illustrates FACScan profiles using an anti-trkA specific monoclonal antibody versus control mouse IgG.
FIG. 4B is a graph of the analysis of the % reduction of cell surface mean fluorescence channel (MFC, using the Lysis (B.D.) software) after receptor internalization.

[5] = target: T3, R7 (trkA-p75), NIH-3T3 p75 and trkA double transfectant (Homo sapiens, UniProt P04629); test: 125I-NGF binding to R7 transfectants; settings: analog ~40 μM; for % INHIBITION of 125I-NGF binding, R7 (trkA-p75): mean ±2 SEM
T3 construct: expressed in transfected cells; host or cells: NIH-3T3 mouse fibroblasts (R7), from Dr. Mariano Barbacid; Jing et al. 1992
Procedure: as §1, §4, §5, §6, §7

PC12 (trkA-p75) = target: T4, PC12 (trkA-p75) (Rattus norvegicus, UniProt P35739); test: 125I-NGF binding to PC12 cells; settings: mean ±2 SEM
T4 construct: PC12 pheochromocytoma cells expressing rat p140 trkA and p75 LNGFR; host or cells: PC12 rat pheochromocytoma cells
Procedure: as §1
Analogs were tested for their ability to affect binding of ^125 I-NGF (73.1 μCi/μg NEN, DuPont). […] After 15 min, ^125 I-NGF was added to a final concentration of 0.4-2 nM (^~ 40,000 cpm) and the mixtures were further incubated for 40 min at 4° C. Cells were then washed in binding buffer, pelleted, and cell-associated ^125 I-NGF was determined. […] Assays were performed >4 times, each from at least three different synthesis (inhibitory analogs) or 1-3 times each from 2 different synthesis (non-inhibitory analogs). Receptor saturation experiments were similarly performed with increasing concentrations of ^125 I-NGF ligand and a constant dose of inhibitor.
To determine the mechanism of biological antagonistic activity by the cyclic analogs, ^125 I-NGF binding measurements were performed with cell lines expressing both p75 and trkA receptors (PC12 cells and R7 transfectants) or only trkA receptors (E25 transfectants) (Table III). Analogs were used at a concentration of ^~ 40 μM.
as §6, §7

[6] = target: T1, E25 (trkA), trkA receptor expressing fibroblast transfectants; test: 125I-NGF binding to E25 transfectants, with dose response and saturation studies; settings: dose response 0.4 μM to 200 μM analog, constant 200 pM 125I-NGF; read-out: IC50, inhibition of 125I-NGF binding
NGF biological activity = settings: Longo et al. 1990; cited from earlier work
PC12 cells = test: Toxicity control: cell death of PC12 cells after culture with the compounds; assay type: cell-based, rat

T4 sequence (P35739 33-799): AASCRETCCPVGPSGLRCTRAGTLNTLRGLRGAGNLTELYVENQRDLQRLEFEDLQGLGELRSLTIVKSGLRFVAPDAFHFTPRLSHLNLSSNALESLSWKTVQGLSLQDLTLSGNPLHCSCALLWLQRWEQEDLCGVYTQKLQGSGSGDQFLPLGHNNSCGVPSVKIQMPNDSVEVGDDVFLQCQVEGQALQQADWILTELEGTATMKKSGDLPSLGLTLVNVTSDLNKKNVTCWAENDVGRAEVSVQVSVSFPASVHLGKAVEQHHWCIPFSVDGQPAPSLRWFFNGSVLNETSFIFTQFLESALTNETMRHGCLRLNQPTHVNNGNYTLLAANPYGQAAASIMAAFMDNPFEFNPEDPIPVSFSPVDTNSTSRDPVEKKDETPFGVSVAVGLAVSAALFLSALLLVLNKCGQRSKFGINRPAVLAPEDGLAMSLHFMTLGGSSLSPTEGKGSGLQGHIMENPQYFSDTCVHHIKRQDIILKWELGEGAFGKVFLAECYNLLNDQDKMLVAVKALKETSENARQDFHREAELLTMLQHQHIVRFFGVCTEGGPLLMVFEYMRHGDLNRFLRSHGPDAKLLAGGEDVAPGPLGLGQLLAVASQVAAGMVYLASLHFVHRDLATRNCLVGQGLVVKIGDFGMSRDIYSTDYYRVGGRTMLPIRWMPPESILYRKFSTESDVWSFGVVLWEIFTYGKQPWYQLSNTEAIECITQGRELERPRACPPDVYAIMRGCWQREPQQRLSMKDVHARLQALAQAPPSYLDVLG
T1 sequence (P04629 33-790 isoform P04629-2 limits assumed): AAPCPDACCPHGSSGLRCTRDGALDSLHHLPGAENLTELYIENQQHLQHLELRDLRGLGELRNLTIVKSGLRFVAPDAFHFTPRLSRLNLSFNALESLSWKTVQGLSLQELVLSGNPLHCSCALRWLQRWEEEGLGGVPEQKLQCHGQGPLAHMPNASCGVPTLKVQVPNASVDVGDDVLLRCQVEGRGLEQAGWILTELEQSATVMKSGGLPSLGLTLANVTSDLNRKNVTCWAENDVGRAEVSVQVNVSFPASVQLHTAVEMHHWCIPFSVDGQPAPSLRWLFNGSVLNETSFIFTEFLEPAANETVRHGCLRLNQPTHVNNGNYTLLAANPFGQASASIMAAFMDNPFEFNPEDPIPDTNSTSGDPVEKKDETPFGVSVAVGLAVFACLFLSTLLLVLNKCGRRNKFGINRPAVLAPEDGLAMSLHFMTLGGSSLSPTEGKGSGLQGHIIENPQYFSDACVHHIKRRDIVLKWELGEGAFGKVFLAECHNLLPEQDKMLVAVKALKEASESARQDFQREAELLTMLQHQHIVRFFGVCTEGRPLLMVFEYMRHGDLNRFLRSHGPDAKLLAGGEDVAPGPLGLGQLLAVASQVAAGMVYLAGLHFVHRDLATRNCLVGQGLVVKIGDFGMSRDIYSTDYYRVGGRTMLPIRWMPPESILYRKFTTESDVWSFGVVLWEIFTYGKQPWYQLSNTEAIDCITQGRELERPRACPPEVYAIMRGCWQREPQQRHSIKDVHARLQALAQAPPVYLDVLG
T3 sequence (P04629 33-796): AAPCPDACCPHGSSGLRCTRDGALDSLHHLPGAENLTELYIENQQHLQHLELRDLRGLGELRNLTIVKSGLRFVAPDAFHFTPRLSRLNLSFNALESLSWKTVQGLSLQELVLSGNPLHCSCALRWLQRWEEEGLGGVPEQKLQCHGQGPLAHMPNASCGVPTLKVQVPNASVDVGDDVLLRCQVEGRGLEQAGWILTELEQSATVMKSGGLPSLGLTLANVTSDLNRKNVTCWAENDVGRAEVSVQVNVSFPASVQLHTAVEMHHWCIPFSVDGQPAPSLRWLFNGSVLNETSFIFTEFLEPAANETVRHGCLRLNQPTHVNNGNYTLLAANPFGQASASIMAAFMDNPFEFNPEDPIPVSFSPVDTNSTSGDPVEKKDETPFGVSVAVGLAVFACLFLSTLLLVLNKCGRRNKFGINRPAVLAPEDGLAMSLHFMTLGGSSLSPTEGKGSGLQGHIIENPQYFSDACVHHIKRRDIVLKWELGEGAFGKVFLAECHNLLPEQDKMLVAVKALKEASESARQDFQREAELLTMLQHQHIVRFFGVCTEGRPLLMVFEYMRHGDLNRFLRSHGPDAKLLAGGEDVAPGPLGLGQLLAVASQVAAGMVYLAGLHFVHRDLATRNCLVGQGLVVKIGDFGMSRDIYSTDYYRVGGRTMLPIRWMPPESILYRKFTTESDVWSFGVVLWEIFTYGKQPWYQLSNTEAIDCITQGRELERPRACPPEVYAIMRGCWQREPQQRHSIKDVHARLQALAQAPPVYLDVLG
T2 sequence (P04629 33-790 isoform P04629-2 limits assumed): as the sequence (P04629 33-790 isoform P04629-2 limits assumed) above

## X C A S N P V E C [C(60-65)]
[1]
  INHIBITION OF NEURITE OUTGROWTH (1): ++ (equivalent to 12.5 ng/ml NGF)

## R A S N P V E S G (RASNPVESG) [L(59-67), linear 59-67 control]
[2]
  % INHIBITION of 125I-NGF binding, E25 (trkA): -9.5 ± 7.5%
[1]
  INHIBITION OF NEURITE OUTGROWTH (1): + (equivalent to 25 ng/ml NGF)

## Fmoc-X C T D E K Q A C X [C(92-97)]
[2]; 40 µM
  % INHIBITION of 125I-NGF binding, E25 (trkA): 64.9% and 64.9 ± 12.4%
[1]
  effect on NGF mediated PC12 neurite outgrowth (in words): significantly inhibited
  INHIBITION OF NEURITE OUTGROWTH (1): +++ (equivalent to 6.25 ng/ml NGF)
[3]
  effect on bFGF mediated PC12 neurite outgrowth (in words): did not affect
[4]
  disappearance of surface trkA receptors (receptor internalization): induced the disappearance of surface trkA receptors at the permissive conditions only
[5]; 40 µM
  % INHIBITION of 125I-NGF binding, R7 (trkA-p75): 24.3% and 24.3 ± 9.2%

## V N I N N S V F (VNINNSVF) [L(42-49), linear 42-49 control]
[2]
  % INHIBITION of 125I-NGF binding, E25 (trkA): -16.0 ± 15.1%
[5]
  % INHIBITION of 125I-NGF binding, R7 (trkA-p75): 8.0%

## A N V S R S P E G (ANVSRSPEG) [R(59-67), randomized 59-67 control]
[1]
  INHIBITION OF NEURITE OUTGROWTH (1): + (equivalent to 25 ng/ml NGF)

## N N S F V I N V (NNSFVINV) [R(42-49), randomized 42-49 control]
[1]
  INHIBITION OF NEURITE OUTGROWTH (1): + (equivalent to 25 ng/ml NGF)

## A T D I K G K E V (ATDIKGKEV) [L(28-36), linear 28-36 control]
[2]
  % INHIBITION of 125I-NGF binding, E25 (trkA): 6.4 ± 12.4%
PC12 (trkA-p75); analog ~40 μM
  % INHIBITION of 125I-NGF binding, PC12 (trkA-p75): 5.0%
[5]
  % INHIBITION of 125I-NGF binding, R7 (trkA-p75): -11.3%

## Fmoc-X C K G K E C X [C(32-35)]
[2]
  effect on 125I-NGF binding to E25 cells (in words): inhibited NGF binding to E25 cells
  % INHIBITION of 125I-NGF binding, E25 (trkA): 30.7 ± 10.5%
[1]
  INHIBITION OF NEURITE OUTGROWTH (1): ++ (equivalent to 12.5 ng/ml NGF)
PC12 (trkA-p75); analog ~40 μM
  % INHIBITION of 125I-NGF binding, PC12 (trkA-p75): 9.0%
[5]
  effect on 125I-NGF binding to R7 cells (in words): did not affect NGF binding to R7 cells
  % INHIBITION of 125I-NGF binding, R7 (trkA-p75): -4.5 ± 6.5%

## Fmoc-X C I K G K E C X [C(31-35)]
[1]
  INHIBITION OF NEURITE OUTGROWTH (1): ++ (equivalent to 12.5 ng/ml NGF)

## Fmoc-X C T D E K Q C X [C(92-96)]
[2]; 45 μM analog, 125I-NGF 0-1.13 nM, E25 cells
  nature of inhibition in saturation analysis: competitive nature
[2]; 40 µM
  % INHIBITION of 125I-NGF binding, E25 (trkA): 71.3% and 71.3 ± 13.5%
[1]
  effect on NGF mediated PC12 neurite outgrowth (in words): significantly inhibited
[3]
  effect on bFGF mediated PC12 neurite outgrowth (in words): did not affect
PC12 (trkA-p75); analog ~40 μM
  % INHIBITION of 125I-NGF binding, PC12 (trkA-p75): 86.4 ± 10.4%
[6]
  IC50: 23.5 ± 16 µM
[5]; 40 µM
  % INHIBITION of 125I-NGF binding, R7 (trkA-p75): 51.1% and 51.1 ± 0.7%

## Fmoc-X C A S N P V E S C X [C(60-66)]
[1]
  INHIBITION OF NEURITE OUTGROWTH (1): ++ (equivalent to 12.5 ng/ml NGF)

## Fmoc-X C D I K G K E C X [C(30-35)]
[2]
  effect on 125I-NGF binding to E25 cells (in words): inhibited NGF binding to E25 cells
  % INHIBITION of 125I-NGF binding, E25 (trkA): 51.1 ± 0.7%
[1]
  effect on NGF mediated PC12 neurite outgrowth (in words): did not affect
[3]
  effect on bFGF mediated PC12 neurite outgrowth (in words): did not affect
[5]
  effect on 125I-NGF binding to R7 cells (in words): did not affect NGF binding to R7 cells
  % INHIBITION of 125I-NGF binding, R7 (trkA-p75): 0.44 ± 0.6%

## Nerve Growth Factor [NGF]
PC12 (trkA-p75); 0.1 uM unlabeled NGF
  % INHIBITION of 125I-NGF binding, PC12 (trkA-p75): 69.5 ± 4.5%

## peptide with sequences from NGF residues 23-35: prior-art linear peptide of Longo et al. with sequences from NGF residues 23-35 (GDKTTATDIKGKE; UniProt P01138 144-156, looked up, fragment)
NGF biological activity
  concentration of peptide at which inhibition of NGF biological activity occurred: 2 mM

## Fmoc-X C N I N N S V C X [C(43-48)]
[2]
  effect on 125I-NGF binding to E25 cells (in words): did not inhibit; also recorded: without being effective at all in binding assays in E25 cells
  % INHIBITION of 125I-NGF binding, E25 (trkA): -2.7 ± 8.5%
[1]
  effect on NGF mediated PC12 neurite outgrowth (in words): significantly inhibited; also recorded: effective in inhibiting biological assays in PC12 cells
  INHIBITION OF NEURITE OUTGROWTH (1): +++ (equivalent to 6.25 ng/ml NGF)
[3]
  effect on bFGF mediated PC12 neurite outgrowth (in words): did not affect; also recorded: bFGF was not affected
[5]
  % INHIBITION of 125I-NGF binding, R7 (trkA-p75): 5.0%

## Fmoc-X C S N P V E S C X [C(61-66)]
PC12 cells
  cell death / necrosis after culture with the compounds: did cause necrosis

## Fmoc-X C N I N N S C X [C(43-47)]
[1]
  INHIBITION OF NEURITE OUTGROWTH (1): + (equivalent to 25 ng/ml NGF)

## Fmoc-X C I N N S V C X [C(44-48)]
[2]
  effect on 125I-NGF binding to E25 cells (in words): did not inhibit; also recorded: without being effective at all in binding assays in E25 cells
  % INHIBITION of 125I-NGF binding, E25 (trkA): -12.5 ± 5.4%
[1]
  effect on NGF mediated PC12 neurite outgrowth (in words): significantly inhibited; also recorded: effective in inhibiting biological assays in PC12 cells
  INHIBITION OF NEURITE OUTGROWTH (1): +++ (equivalent to 6.25 ng/ml NGF)
[3]
  effect on bFGF mediated PC12 neurite outgrowth (in words): did not affect

## Fmoc-X C T A I K G K E C X [C(29-35ΔD30A)]
PC12 cells
  cell death / necrosis after culture with the compounds: did cause necrosis

## T T D E K Q A A W (TTDEKQAAW) [L(91-99), linear 91-99 control]
[2]
  effect on 125I-NGF binding to E25 cells (in words): None of the other cyclic, linear or randomized analogs had significant effects
  % INHIBITION of 125I-NGF binding, E25 (trkA): 2.1 ± 8.5%
[1]
  INHIBITION OF NEURITE OUTGROWTH (1): + (equivalent to 25 ng/ml NGF)
[5]
  % INHIBITION of 125I-NGF binding, R7 (trkA-p75): 3.8 ± 1.0%
